Measured values from article PMC12631912, “A Multifunctional Molecular Probe for Multimodal Imaging‐Guided Potent Photothermal/Photodynamic Therapy of Endometriosis” (Advanced Science, 2025).

What was measured:
Ishikawa cells [1] = assay: CCK-8 cytotoxicity without laser irradiation; assay type: cell-based; settings: CCK-8, 24 h incubation, ICG concentration up to 300 µg mL^−1
Protocol: (§1) After 24 h, the medium was replaced with fresh medium containing 10% CCK‐8 reagent and incubated for an additional 2 h. The absorbance at 450 nm was measured using a Synergy 2 multimode microplate reader (BioTek, USA), with the wells without cells serving as blanks. All experiments were performed in triplicate.

[2] = UV absorption and fluorescence emission spectra; assay type: physicochemical; settings: in PBS, cRGD-ILD C ICG = 10 µg mL^−1, ICG 5 µg/mL
Protocol: The ^1H NMR spectra were conducted utilizing a Varian Unity 400 MHz Spectrometer ([…]) in a variety of deuterated solvents. ESI‐MS were obtained with a Thermo Scientific LTQ XL mass spectrometer (Thermo, USA). UV absorption spectra were measured by a Unico UV‐2000 UV–vis Spectrophotometer (Shanghai, China). Photoluminescence excitation and emission spectra were recorded using an FSP920‐combined Time Resolved and Steady State Fluorescence Spectrometer (Edinburgh, UK), equipped with a 450‐W xenon lamp. Both the UV and fluorescence spectrophotometers were scanned within the wavelength range of 650–850 nm.

EESCs [3] = assay: CCK-8 cytotoxicity without laser irradiation; assay type: cell-based, human; settings: CCK-8, 24 h incubation, ICG concentration up to 300 µg mL^−1
Protocol: as §1

EESCs [4] = assay: Intracellular ROS generation, DCFH-DA, flow cytometry; assay type: cell-based, human; settings: C ICG = 20 µg mL^−1, 4 h, + laser (808 nm, 1.0 W cm^−2, 5 min)
Protocol: DCFH‐DA was utilized to evaluate the intracellular ROS production induced by molecular probes under laser irradiation. Specifically, the cells (1 × 10^4 per well) were seeded onto confocal dishes and incubated overnight at 37 °C. […] Following this, the cells were carefully rinsed three times with fresh PBS. Subsequently, the cells were irradiated with an 808 nm laser (1.0 W cm^− ^2, 5 min). Intracellular ROS levels were then visualized and analyzed using a CLSM.
Additionally, a quantitative assessment of intracellular ROS production was performed using flow cytometry under the same conditions as the above experimental conditions. […] The cells were then trypsinized and harvested. After exposure to an 808 nm laser (1.0 W cm^− ^2, 5 min), the collected cells were analyzed on an Attune NxT flow cytometer (Invitrogen, USA). The resulting data was analyzed with NovoExpress 1.4.0 software (Agilent, USA).

[5] = Photothermal heating and photothermal conversion efficiency of probe solutions; assay type: physicochemical; settings: for temperature elevation of solution: 808 nm laser, 1.0 W cm^−2, 5 min
Protocol: Subsequently, a digital thermographic camera (Fluke Ti27, IR Fusion Technology, USA) was used to capture infrared thermal images and measure temperatures. The relationship between temperature values and laser irradiation duration was recorded using AnalyzIR software (4.0.0). […] The PCE (η) was subsequently calculated based on these measurements.^[ [41] ^]

endometriotic lesions = assay: In vivo anti-EMS efficacy, xenograft model; parameters: species or system BALB/c nude mice; settings: xenograft EMS nude mice
Protocol: (§2) As shown in previous references,^[ [19] ^] to establish a xenograft EMS model in nude mice, female BALB/c nude mice (5‐6 weeks, 18‐20 g) served as recipients, and female Sprague–Dawley rats (7‐9 weeks, 200–240 g) with regular 4–5 days estrous cycles were selected as donors after a week of acclimatization. Prior to surgery, nude mice received daily intramuscular β‐estradiol 17‐pentanoate (0.25 µg g^−1) for 3 days. The EMS model was induced by subcutaneous transplantation of ≈40 mg of rat uterine fragments into nude mice. The uterine horns from euthanized donors were sterilely collected, bisected, minced, and suspended in DMEM/F12 medium before injection. Nude mice then received β‐estradiol 17‐pentanoate (0.25 µg g^−1) injections every 2 days, and endometriotic lesions reaching 100 mm^3 were used for subsequent experiments.
Mice were injected with different formulations via the tail vein every 3 days until euthanasia, with an ICG dose of 3 mg kg^−1. For groups receiving NIR laser irradiation, the procedure was conducted 1 h post‐administration with a power of 1.0 W cm^− ^2 for 10 min. Mouse body weights were recorded every 3 days, and xenograft growth was monitored using a vernier caliper. EMS rats (n = 4) underwent the same treatment strategy after 28 days of autotransplantation, with body weight changes monitored every 3 days. After 18 days of treatment, rats were euthanized for autograft size measurement. Nude mice were euthanized after 18 days for graft extraction, followed by H&E staining and TUNEL assay. Briefly, sections were deparaffinized, hydrated, stained with H&E, and visualized under an optical microscope.
TUNEL staining was performed following the instructions provided in the FITC TUNEL Cell Apoptosis Detection Kit (G1501, Servicebio, Wuhan). Paraffin sections were dewaxed, hydrated, repaired with proteinase K, and permeabilized with Triton X‐100. After incubating with buffer at room temperature for 10 min, a reaction solution containing TdT enzyme, dUTP, and buffer (1:5:50 ratio) was added and incubated at 37 °C for 1 h. Nuclei were counterstained with DAPI for 10 min, followed by three 5 min PBS washes (pH 7.4) on a decolorizing shaker. The slides were then blocked with an anti‐fluorescence quenching blocker (G1401, Sevier, Wuhan). The slides were visualized under CLSM with DAPI (blue light, excited at 330–380 nm, emitted at 420 nm) and FITC (green light, excited at 465–495 nm, emitted at 515–555 nm).

EMS lesions = assay: In vivo infrared thermography of EMS lesions; parameters: species or system BALB/c nude mice; settings: EMS nude mice, ICG 500 µg kg^−1 i.v., 1 h post-injection, 808 nm laser 1.0 W cm^−2, within 5 min; n = 3
Protocol: as §2
To investigate the photothermal heating efficacy at lesion sites in EMS mice, in vivo infrared thermography studies were conducted. […] Thermal responses were monitored in real‐time using a digital thermographic camera (Fluke Ti27, IR Fusion Technology, USA). Infrared thermal images were captured, and temperature measurements were recorded. The temporal correlation between temperature elevation and laser irradiation duration was analyzed using AnalyzIR software (4.0.0).

Ishikawa cells [6] = assay: Cellular internalization of probes by flow cytometry; assay type: cell-based; settings: in Figure 3g
Protocol: Furthermore, the cellular internalization of the probes was quantitatively evaluated using flow cytometry. […] After these incubation periods, the cells were washed three times with PBS, trypsinized, and collected. The harvested cells were then analyzed using an Attune NxT flow cytometer (Invitrogen, USA). The data obtained was analyzed utilizing NovoExpress 1.4.0 software (Agilent, USA).

Row | Substance | cell viability without laser irradiation (Ishikawa cells [1]) | fluorescence emission peak ([2]; λex = 755 nm) | absorption peak [2] | cell viability without laser irradiation (EESCs [3]) | intracellular ROS, normalized fluorescence intensity (DCFH-DA) (EESCs [4]) | maximum temperature increase ([5]; 50 µg/mL, 1 W/cm², laser on/off, 5 photothermal cycles (Figure S12a)) | temperature elevation of solution ([5]; C ICG = 50 µg mL^−1 in PBS) | Photothermal conversion efficiency (PCE) ([5]; C ICG = 50 µg mL^−1 in PBS, 808 nm, 1 W/cm², calculated from heating and cooling curves) | therapeutic efficacy, probe + laser (endometriotic lesions; ICG 3 mg kg^−1 i.v. every 3 days, 808 nm 1.0 W cm^−2 10 min, 18 days, n = 5) | H&E histology of ectopic lesions, probe + laser (endometriotic lesions; after 18 days of treatment) | TUNEL assay of lesions, probe + laser (endometriotic lesions; after 18 days of treatment) | localized (maximum) temperature at the EMS lesion (EMS lesions) | internalized probes by flow cytometry (Ishikawa cells [6]; C ICG = 2.5 µg mL^−1, 1 h incubation) | internalized probes by flow cytometry (Ishikawa cells [6]; C ICG = 2.5 µg mL^−1, 4 h incubation)
1 | c(RGDyK)‐ICG‐lys‐DTPA@Gd (head to tail) [cRGD‐ILD, targeting theranostic probe integrating cRGD peptide, ICG fragment and DTPA@Gd complex] | above 90% | 764 nm | 755 nm | above 90% | 96.99% | ≈ 45 °C | ≈ 20 °C | 29.81% | outperformed the ILD + laser combination | pronounced graft growth suppression | peak apoptotic activity | – | – | –
2 | ICG‐lys‐DTPA@Gd [ILD] | – | – | – | – | 93.85% | – | ≈ 20 °C | – | – | pronounced graft growth suppression | – | 34.5 °C | 61.98% | 93.22%
